Results on 10 molecules are retold here after ChEMBL document CHEMBL1201862, “PubChem BioAssay data set” (2004).

Test systems include 786-0; KM12; SK-MEL-5; TK-10; MOLT-4; CAKI-1; HOP-62; SNB-19; HCC 2998; CCRF-CEM; A549; Malme-3M; EKVX; NCI-H522.
Assay in all cases: NCI tumour cell line growth inhibition, 48 h

Molecules are shown by their SMILES.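 Five concentrations, 48 hours, 96-well plates. Here, GI50 denotes the concentration required for 50% inhibition of growth.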 Activity calls are given as the source filed them. No stated cut-off is given here; in the data, active = GI50 up to about 1.1 µM and inactive = higher. Where only a bound is given, the exact number is not on record here.

As for `Cc1ccc(NCC(=O)N2CC(=O)Nc3ccccc32)cc1`, the GI50 in the experiment on 786-0, in the experiment with KM12, in the experiment with SK-MEL-5, in the experiment on TK-10, in the experiment with MOLT-4 and in the experiment on CAKI-1 was > 100 µM (inactive) in each case. Further, the GI50 in the experiment on HOP-62, in the experiment with SNB-19, with HCC 2998, with CCRF-CEM, in the experiment with A549 and with Malme-3M was > 100 µM (inactive) throughout. The GI50 in the experiment with EKVX and in the experiment with NCI-H522 was > 100 µM (inactive) each time.

With `Cc1cc(C)nc(NS(=O)(=O)c2ccc(Nc3c4ccc(Cl)cc4nc4c(C(=O)NCCN(C)C)cccc34)cc2)n1`, the GI50 in the experiment on 786-0, with KM12, in the experiment on SK-MEL-5, in the experiment on TK-10, in the experiment with MOLT-4 and with CAKI-1 was > 100 µM (inactive) throughout. Further, the GI50 with HOP-62, in the experiment on SNB-19, in the experiment with HCC 2998, with CCRF-CEM, in the experiment on A549 and in the experiment with Malme-3M was > 100 µM (inactive) each time. The GI50 in the experiment with EKVX and in the experiment with NCI-H522 was > 100 µM (inactive) in each case.

As for `CN(C)CCNC(=O)c1ccc(C(=O)NCCN(C)C)c2nc3ccccc3cc12`, the GI50 with 786-0 is 0.692 µM (active); in the experiment with KM12 it was 0.792 µM (active); in the experiment on SK-MEL-5 it was 1.49 µM (inactive); in the experiment on TK-10, 0.94 µM (active); in the experiment with MOLT-4 it was 0.226 µM (active); in the experiment with CAKI-1 it was 1.48 µM (inactive). Besides, the GI50 with HOP-62 is 0.979 µM (active); in the experiment with SNB-19, 1.2 µM (inactive); in the experiment on HCC 2998, 0.9 µM (active); in the experiment with CCRF-CEM, 0.676 µM (active); in the experiment on A549, 0.45 µM (active); with Malme-3M it was 1.38 µM (inactive). The results for the GI50 in the experiment on EKVX and with NCI-H522 were 1.81 µM (inactive) and 0.47 µM (active), respectively.

As to `O=C1C2c3[nH]c4ccccc4c3C3CCCCCC3C2C(=O)N1c1ccccc1` (centres undefined), the GI50 is 44.9 µM (inactive) with 786-0; > 100 µM (inactive) in the experiment on KM12; > 100 µM (inactive) in the experiment with SK-MEL-5; 35.3 µM (inactive) with TK-10; 16 µM (inactive) in the experiment with MOLT-4; 17.4 µM (inactive) in the experiment with CAKI-1. The GI50 in the experiment on HOP-62 is 16.9 µM (inactive); with SNB-19 it was 25.8 µM (inactive); in the experiment on HCC 2998, > 56.1 µM (inactive); in the experiment on CCRF-CEM, 9.57 µM (inactive); in the experiment with A549, 34.4 µM (inactive); in the experiment with Malme-3M it was 9.31 µM (inactive). Besides, the GI50 in the experiment on EKVX is > 68.1 µM (inactive); with NCI-H522, 37.7 µM (inactive).

`CC1(C)C(=O)/C=C\C(=O)C(C)(C)C2=CC=C(O2)C(C)(C)C(=O)/C=C\C(=O)C(C)(C)C2=CC=C1O2`: the GI50 in the experiment on 786-0, in the experiment with KM12, with TK-10, in the experiment with MOLT-4, in the experiment on CAKI-1 and in the experiment on HOP-62 was > 100 µM (inactive) each time. The GI50 in the experiment with SNB-19, in the experiment with HCC 2998, with CCRF-CEM, in the experiment with A549, in the experiment on Malme-3M and in the experiment with EKVX was > 100 µM (inactive) throughout. Also, the GI50 with NCI-H522 was > 100 µM (inactive).

In the case of `C/N=C(\NC(=S)N(C)C)N(C)C`, the GI50 in the experiment on 786-0, in the experiment with KM12, in the experiment on SK-MEL-5, in the experiment with TK-10, in the experiment with MOLT-4 and with CAKI-1 was > 100 µM (inactive) throughout. Besides, the GI50 with HOP-62, in the experiment on SNB-19, in the experiment on HCC 2998, in the experiment with CCRF-CEM, in the experiment on A549 and in the experiment on Malme-3M was > 100 µM (inactive) each time. The GI50 with EKVX and in the experiment on NCI-H522 was > 100 µM (inactive) each time.

Consider `COC1=CC(=O)C2C(C1=O)C(c1ccc(OC)c(OC)c1)[C@H]2C` (some centres undefined), for which the GI50 in the experiment on 786-0 was 18 µM (inactive); in the experiment with KM12, > 100 µM (inactive); in the experiment on SK-MEL-5 it was 22.4 µM (inactive); in the experiment with TK-10, 19 µM (inactive); with MOLT-4 it was 7.71 µM (inactive); in the experiment with CAKI-1, 11.5 µM (inactive). Also, the GI50 in the experiment on HOP-62 is > 100 µM (inactive); with SNB-19, > 100 µM (inactive); in the experiment with HCC 2998 it was > 100 µM (inactive); in the experiment on CCRF-CEM, 22.6 µM (inactive); in the experiment with A549 it was > 100 µM (inactive); in the experiment with Malme-3M it was 19.6 µM (inactive). In addition, the GI50 with EKVX is > 100 µM (inactive); with NCI-H522, 12.8 µM (inactive).

On to `CCCCCCCCCCCC[N+]12CC[N+](CCN)(CC1)CC2`, for which the GI50 in the experiment with 786-0 was > 100 µM (inactive); in the experiment with KM12 it was 23.7 µM (inactive); with SK-MEL-5 it was > 100 µM (inactive); in the experiment on TK-10 it was 17.1 µM (inactive); with MOLT-4, > 100 µM (inactive); with CAKI-1, 19.2 µM (inactive). Further, the GI50 is 68.5 µM (inactive) with HOP-62; 20.8 µM (inactive) with SNB-19; 35 µM (inactive) in the experiment on HCC 2998; 73.6 µM (inactive) with CCRF-CEM; > 100 µM (inactive) in the experiment on A549; > 100 µM (inactive) in the experiment with Malme-3M. The GI50 in the experiment with EKVX is > 100 µM (inactive); in the experiment on NCI-H522 it was 86.5 µM (inactive).

Turning to `CN1CCC(c2c(O)cc(O)c3c(=O)cc(-c4ccccc4Cl)oc23)C(O)C1` (centres undefined), the GI50 in the experiment on 786-0 is 0.0498 µM (active); with KM12 it was 0.0228 µM (active); in the experiment on SK-MEL-5, 0.0344 µM (active); with TK-10, 0.219 µM (active); in the experiment on MOLT-4, < 0.0108 µM (active); in the experiment on CAKI-1 it was 0.0628 µM (active). The GI50 in the experiment with HOP-62 was 0.018 µM (active); in the experiment with SNB-19 it was 0.0526 µM (active); in the experiment on HCC 2998, 0.165 µM (active); in the experiment on CCRF-CEM it was 0.0271 µM (active); with A549 it was 0.0607 µM (active); with Malme-3M it was 0.203 µM (active). Further, the GI50 is < 0.0395 µM (active) in the experiment with EKVX and 0.136 µM (active) in the experiment with NCI-H522.

`CCOc1ccc(/C=C/c2cc(OC)c(OC)c(OC)c2)cc1`: the GI50 in the experiment on 786-0 is 3.05 µM (inactive); in the experiment with KM12 it was 0.411 µM (active); with SK-MEL-5, 0.556 µM (active); in the experiment with TK-10, 8.83 µM (inactive); in the experiment on MOLT-4, 1.37 µM (inactive); in the experiment on CAKI-1, 0.564 µM (active). Besides, the GI50 in the experiment on HOP-62 was 0.392 µM (active); in the experiment with SNB-19, 4.36 µM (inactive); in the experiment with HCC 2998, 1.14 µM (inactive); in the experiment on CCRF-CEM it was 1.86 µM (inactive); in the experiment with A549 it was 1.08 µM (active); with Malme-3M, 0.893 µM (active). Also, the results for the GI50 in the experiment with EKVX and in the experiment with NCI-H522 were > 100 µM (inactive) and 0.429 µM (active), respectively.
